Test results reported in patent US6372785B1, “Synthesis of 1,8-dichloro-anthracene analogues and pharmaceutical compositions based thereon” (Keith Chan, President GloboAsia, LLC, priority 2000, dated 2002).

| Compound | melting point [°C] |
| --- | --- |
| CC(C)C(=O)Oc1c2c(Cl)cccc2cc2cccc(Cl)c12 [Compound 3e, 1,8-Dichloro-9-isobutyroxyanthracene] | 184 to 186 |
| Cc1ccc(C(=O)Oc2c3c(Cl)cccc3cc3cccc(Cl)c23)cc1 [Compound 3o, 1,8-Dichloro-9-(p-toluoyloxy)anthracene] | 220 to 222 |
| CCCC(=O)Oc1c2c(Cl)cccc2cc2cccc(Cl)c12 [Compound 3h, 1,8-Dichloro-9-butyroxyanthracene] | 152 to 154 |
| CCCCCC(=O)Oc1c2c(Cl)cccc2cc2cccc(Cl)c12 [Compound 3k, 1,8-Dichloro-9-hexanoyloxyanthracene] | 136 to 138 |
| CC(=O)Oc1c2c(Cl)cccc2cc2cccc(Cl)c12 [Compound 3a, 1,8-Dichloro-9-acetoxyanthracene] | 130 to 131 |
| Cc1cccc(C(=O)Oc2c3c(Cl)cccc3cc3cccc(Cl)c23)c1 [Compound 3n, 1,8-Dichloro-9-(m-toluoyloxy)anthracene] | 196 to 198 |
| CCC(=O)Oc1c2c(Cl)cccc2cc2cccc(Cl)c12 [Compound 3d, 1,8-Dichloro-9-propionoxyanthracene] | 150 to 152 |
| O=C(CCCBr)Oc1c2c(Cl)cccc2cc2cccc(Cl)c12 [Compound 3I, 1,8-Dichloro-9-(4-bromobutyroxy)anthracene] | 155 to 157 |
| O=C(CCl)Oc1c2c(Cl)cccc2cc2cccc(Cl)c12 [Compound 3c, 1,8-Dichloro-9-chloroacetoxyanthracene] | 178 to 180 |
| Cc1ccccc1C(=O)Oc1c2c(Cl)cccc2cc2cccc(Cl)c12 [Compound 3m, 1,8-Dichloro-9-(o-toluoyloxy)anthracene] | 168 to 170 |
| O=C(Oc1c2c(Cl)cccc2cc2cccc(Cl)c12)c1ccccc1 [Compound 3L, 1,8-Dichloro-9-benzoyloxyanthracene] | 183 to 185 |
| O=C(CBr)Oc1c2c(Cl)cccc2cc2cccc(Cl)c12 [Compound 3b, 1,8-Dichloro-9-bromoacetoxyanthracene] | 192 to 193 |
